Assay results taken from patent US9956233B2 (priority 2015, dated 2018).

Legend:
AMPK = AMPK activation, phosphorylation at T172; format: cell-based; conditions: N27 cells, 10-100 μM, 24 h
From the text: In this example we assessed whether mito-Met alters mitochondrial biogenesis in a dopaminergic cell model.

[1] = test system: complex I in the mitochondrial respiratory chain; conditions: cited from earlier work
[2] = diabetic patients; cited from earlier work
Tfam = Tfam protein and mRNA expression; conditions: N27 cells, 10-100 μM, 24 h
[3] = test system: primary dopaminergic neurons; assay: MPP+ toxicity in primary mesencephalic neuronal cultures, TH+ neurite length; format: cell-based; conditions: 10 μM, 24 h
Protocol: Primary […] neurons were treated with 10 μM MPP+ alone or co-treated with 100-300 nM mito-Met for 24 h. […] FIG. 7B depicts quantification of neurite length of TH+ neurons.
Primary mesencephalic neuronal cultures were treated for 24 h with 10 μM MPP^+ alone or co-treated with 100 and 300 nM mito-Met, dopaminergic neurotoxicity was assessed by TH immunocytochemistry (FIG. 7A) and quantification of neurite length of TH^+ neurons (FIG. 7B). MPP^+ reduced the neurite length of TH-immunoreactive neurons to almost 45% of the vehicle-treated group, indicating significant dopaminergic neurotoxicity.

SMILES	phosphorylation of AMPK Thr172 (AMPK)	effect on mitochondrial complex-1 activity ([1]; at approximately 0.1 mM)	inhibition of complex I in the mitochondrial respiratory chain ([1]; in vitro, millimolar concentrations)	tolerated daily doses [2]	protein levels of Tfam (Tfam)	neurite length of TH-immunoreactive neurons, of the vehicle-treated group [3]
CN(C)C(=N)N=C(N)N [metformin, Metformin]	significantly increased	does not affect	inhibit	2-3 grams	upregulated	
C[n+]1ccc(-c2ccccc2)cc1 [MPP^+]						~45%
